# From patent publication US11819497B2 (Azurity Pharmaceuticals, Inc., priority 2018, dated 2023)
# Experiment: Solubility of nimodipine in various aqueous solvent systems
# Type: physicochemical
# Conditions: for solubility: aqueous solvent system (glycerin/ethanol/water/PEG400), aqueous with cosolvent or surfactant or cyclodextrin, thermodynamic from solid, Nimodipine solubility
smiles,measurement,setting,value
COCCOC(=O)C1=C(C)NC(C)=C(C(=O)OC(C)C)C1c1cccc([N+](=O)[O-])c1 (stereo not drawn) [Nimodipine],solubility,"Glycerin 0%, Ethanol 0%, Water 1%, PEG400 99%",43000 µg/mL
same,solubility,"Glycerin 0%, Ethanol 0%, Water 5%, PEG400 95%",38000 µg/mL
same,solubility,"Glycerin 0%, Ethanol 0%, Water 10%, PEG400 90%",26000 µg/mL
same,solubility,"Glycerin 0%, Ethanol 0%, Water 15%, PEG400 85%",14000 µg/mL
same,solubility,"Glycerin 0%, Ethanol 0%, Water 40%, PEG400 60%",1300 µg/mL
same,solubility,"Glycerin 0%, Ethanol 0%, Water 50%, PEG400 50%",400 µg/mL
same,solubility,"Glycerin 0%, Ethanol 1.0%, Water 10%, PEG400 89%",31000 µg/mL
same,solubility,"Glycerin 0%, Ethanol 1.0%, Water 20%, PEG400 79%",18000 µg/mL
same,solubility,"Glycerin 0%, Ethanol 5.0%, Water 10%, PEG400 85%",29000 µg/mL
same,solubility,"Glycerin 0%, Ethanol 5.0%, Water 20%, PEG400 75%",14000 µg/mL
same,solubility,"Glycerin 20%, Ethanol 0%, Water 20%, PEG400 60%",1500 µg/mL
same,solubility,"Glycerin 30%, Ethanol 0%, Water 10%, PEG400 60%",1600 µg/mL
same,solubility,"Glycerin 35%, Ethanol 0.4%, Water 1%, PEG400 63%",13400 µg/mL
same,solubility,"Glycerin 35%, Ethanol 0.4%, Water 10%, PEG400 54%",5700 µg/mL
same,solubility,"Glycerin 36%, Ethanol 0.4%, Water 20%, PEG400 43% (Table VI)",1500 µg/mL
same,solubility,"Glycerin 36%, Ethanol 0.4%, Water 20%, PEG400 43% (Table VII)",1500 µg/mL
same,solubility,"Glycerin 39%, Ethanol 0%, Water 1%, PEG400 60%",2100 µg/mL
same,solubility,"Glycerin 46%, Ethanol 0.4%, Water 10%, PEG400 43%",1500 µg/mL
same,solubility,"Glycerin 51%, Ethanol 0.4%, Water 5%, PEG400 43%",4300 µg/mL
same,solubility,"Glycerin 55%, Ethanol 0.4%, Water 1%, PEG400 43%, room temperature",5200 µg/mL
same,Effect of higher amounts of ethanol on nimodipine solubility,"water, polyethylene glycol, ethanol solvent system, higher amounts of ethanol (Example 2)",reduced nimodipine solubility
